Columns and labels:
[1] = test system: BCap37 human breast cancer cell line tumor; experiment: tumor inhibition experiment in tumor-bearing nude mice, with and without irradiation; type: in vivo
Protocol: After the tumor size was grown to about 100 mm^3 (9 days after inoculation), the tumor-bearing nude mice were randomly divided into 7 groups, 5 in each group. One group was injected with PBS as blank control, and the other six administration groups were categorized as the ICG small molecule group without irradiation, ICG small molecule group plus irradiation, ICG/SN38 nanoparticle group, ICG/SN38 nanoparticle group plus irradiation, ICG/PTX aqueous solution group, and ICG/PTX aqueous solution group plus irradiation, respectively. The mice were injected via the tail vein at a dose of calculated ICG concentration at 10 mg/kg, and were administered once every other day for 2 times. The tumor size was recorded until the end of the experiment. The therapeutic effect was evaluated by comparing the treatment group with the control group. The tumor inhibition rate (IR) was calculated by the following formula: IR=100%×(mean tumor weight of the control group−mean tumor weight of the experimental group)/mean tumor weight of the control group.
FIG. 15 was the results of tumor inhibition after irradiation treatment. The ICG group was administered twice, and the ICG/SN38 nanoparticle group was administered once. Irradiation was carried out 4 hours after administration (808 nm laser, intensity 1 W/cm^2, irradiation for 2 minutes). […]

[2] = test system: BCap37 human breast cancer cell line tumor; experiment: in vivo fluorescence imaging in tumor-bearing nude mice; details: 3 hours after administration, FIG. 13
Excerpt: Therefore, these two nanoparticle formulations were further selected for in vivo fluorescence imaging in tumor-bearing nude mice, in comparison with small molecule ICG. The tumor was located 2 cm below the right armpit of the mouse, derived from BCap37 human breast cancer cell line.

[3] = plasma clearance test on mice; type: in vivo
Protocol: To determine the appropriate drug ratio of ICG/SN38 nanoparticles for animal experiments, a series of ICG/SN38 nanoparticles: I2S1, I1S1, I1S2, I1S5 and I1S10 were prepared, and the average particle size thereof was 130 nm, 55 nm, 36 nm, 30 nm and 26 nm, respectively. The plasma clearance rate of the nanoparticles was measured based on the content of SN38 (10 mg/kg).
In addition, the plasma clearance rates of small molecule ICG, ICG/PTX solutions, and ICG/SN38 nanoparticles were compared.

cells = experiment: cellular uptake by laser confocal microscopy; type: cell-based; details: 2 hours after drug applied
Protocol: In order to judge the rate of cellular uptake of drug from the nano formulation, as well as the therapeutic effect of the drug, the laser confocal microscopy microscope was used to observe the distribution of the drug in the cells 2 hours after drug applied. […] Therefore, the largest amount of ICG could enter into the cell to exert best therapeutic effect in the nano drug-loading system.

BCap37 cells [4] = experiment: MTT cytotoxicity test with and without irradiation; type: cell-based, human
Protocol: FIG. 9 is a graph showing a cytotoxicity test of ICG and the complex formulation thereof on BCap37 cells. (I1S2 is a nanoparticle formed by ICG and SN38 with a molar ratio of 1:2; and I1P1 is an aqueous solution drug of the complex formed by ICG and Paclitaxel with a molar ratio of 1:1. The drugs were applied for 24 hours and then washed off, followed by incubation for 24 hours after irradiation and non-irradiation treatment, respectively.)
200 μL of cell suspension at the density of 4000 cells/well was uniformly added to a 96-well plate. After 24 hours of incubation, ICG, ICG/SN38 (I1S2) nanoparticles, ICG/PTX (I1P1) complex solution and ICG/CCM (I1C2) complex solution were added at different concentration points. Two identical plates were incubated in dark for 3 hours, and then culture medium was removed and washed three times with PBS, followed by addition of fresh medium. The irradiation group was further dark-incubated after 30 minutes of irradiation under a fluorescent lamp, and the other cell culture plate was dark-incubated all long as a light-proof control group. After 48 hours of incubation, culture plates were centrifuged at 900 rpm, and culture medium was carefully removed. The plates were added the medium containing 0.75 mg/mL MIT dark-incubated for 3 hours, centrifuged at 3500 rpm. After carefully removing the culture solution, the plates were added 100 μL of DMSO to each well, and shaked for 5 minutes to completely dissolve the purple solids. The absorbance (OD) value was recorded on a microplate reader. The test of each drug concentration point was repeated 3 times.

BCap37 cells [5] = experiment: photothermal therapy effect at the cellular level; type: cell-based, human; details: 3 h incubation, 808 nm laser 5 min, 1 W/cm^2
Protocol: The endocytosis experiment was carried out with the indocyanine green complex formulations prepared in embodiments 1 and 2 of the present invention, and the free ICG was used as a control. The procedures were as follows:
The experiment was divided into ICG/SN38 group, ICG/PTX group and ICG group. The BCap37 cells on the stage of logarithmic phase were evenly seeded in a 12-well plate at 1×10^5 cells/well. After 24 hours of incubation, the incubation medium was discarded, and the above formulations in 1 mL culture medium were added to the plate, respectively. After 3 hours of incubation, the incubation medium was discarded, and 1 mL of PBS was added. The three wells incubated with different formulations were then irradiated with 808 nm laser for 5 min (1 W/cm^2), and were photographed in real time by an infrared thermal camera, and the graphs of the temperature changes of each group were recorded.

With `CC1(C)C(/C=C/C=C/C=C/C=C2\N(CCCCS(=O)(=O)[O-])c3ccc4ccccc4c3C2(C)C)=[N+](CCCCS(=O)(=O)[O-])c2ccc3ccccc3c21.[Na+]` [ICG, indocyanine green] the anti-tumor effect ([1]; irradiation 4 hours after administration, 808 nm, 1 W/cm^2, 2 minutes) was “residual tumors were still present and recurred rapidly after the end of treatment”, the anti-tumor effect ([1]; non-irradiation, ICG 10 mg/kg tail vein, every other day for 2 times) was “no anti-tumor effect at all” and the “in vivo distribution by fluorescence” value [2] was “the majority of ICG from the small molecule ICG group were cleared by the body”. For the same molecule, the ICG in plasma ([3]; after 1 hour) was “nearly not detectable”, the plasma clearance ([3]; mice, FIG. 11) was “extremely fast” and the concentration at 3 min ([3]; mouse, plasma, other: injection (site not specified), three minutes after injecting) was < 1 µg/mL. The “cellular uptake / intracellular distribution” value (cells) was “difficult to enter the cell”, the IC50 (BCap37 cells [4]; Homo sapiens, Bcap37, light or radiation study, with light irradiation) was ~13.5 µM and the cell death (BCap37 cells [4]; ICG 20 μM, after irradiation) was “death of all the cells”. The “toxicity to the cells” value (BCap37 cells [4]; in the absence of light) was “not toxic” and the cell temperature change (BCap37 cells [5]) was “no significant temperature changes”.
